Among the data in patent publication US8598132B2, “Glycosylated indolocarbazoles, method for obtaining same and uses thereof” (Universidad de Oviedo, priority 2008, dated 2013) are GI50 values, retold here.

Common to all, as to assay type: cell-based
The subject of assay [1] is HT29 (colon). Kind of assay: SRB anti-tumour (growth inhibition) assay, HT29. To be noted: Homo sapiens, HT-29, 48 h exposure, read-out: GI50 (concentration inhibiting 50% of cell growth). As to the method:
(§1) The compounds generated were tested against a series of cell lines from tumours. It quantitatively determined the cell growth and the viability, using a colorimetric assay type, using the reaction with sulforhodamine B (SRB), according to the technique described by Faircloth et al. (Journal of Tissue and Culture Methods 1988, 11, 201-205).
(§2) 96-well microtitre plates are inoculated with cells (5×10^3 cells per well) in aliquots of 195 μl of medium, incubating them during 18 h, in a medium without added compound, to allow the cells to adhere to the surface. Next, the compounds to be tested are added, in samples of 5 μl, at a range of concentrations of 10 to 10^−8 μg/ml, dissolved in DMSO/EtOH (0.2% in PS buffer). After 48 h exposure, the anti-tumour effect is measured using the Sulforhodamine B (SRB) technique: the cells are fixed adding 50 μl of cold […] (50%) (w/v) and it is incubated for 60 min. at 4° C. The plates are washed with deionized water and dried. 100 μl of SRB solution (0.4% w/v in 1% acetic acid) to each well and it is incubated during 10 min. at ambient temperature. The non-bound SRB is eliminated, washing with 1% acetic acid. The plates are air dried and the bound colorant is dissolved with Tris buffer. The optical densities are read in an automatic plate spectrophotometer reader at a wavelength of 490 nm.
(§3) For the compounds of formula (III), (IV), (V), (VI), (VII), (VIII), (IX) and the compounds of formula (XII), (XIII), (XIV), (XV), (XVI) and (XVIII).

In assay [2] the test system is A549 (lung). Nature of the assay: SRB anti-tumour (growth inhibition) assay, A549. The settings on record: Homo sapiens, 48 h exposure, read-out: GI50 (concentration inhibiting 50% of cell growth). On the procedure: as §1, §2, §3
Assay [3] relates to MDA-MB-231 (breast). Kind of assay: SRB anti-tumour (growth inhibition) assay, MDA-MB-231. The settings on record: Homo sapiens, 48 h exposure, read-out: GI50 (concentration inhibiting 50% of cell growth). On the procedure:
as §1, §2, §3

`CO[C@H]1[C@H](O)[C@@H](O)[C@H](n2c3c(Cl)cccc3c3c4c(c5c6cccc(Cl)c6[nH]c5c32)C(=O)NC4=O)O[C@@H]1CO` [RBM, rebeccamycin, reference compound]: the GI50 in assay [1] was 1550 nM; in assay [2], 760 nM.
Take `CN[C@@H]1C[C@H]2O[C@@](C)([C@@H]1OC)n1c3ccccc3c3c4c(c5c6ccccc6n2c5c31)C(=O)NC4` [STP, staurosporine, reference compound]: the GI50 was found to be 13 nM in assay [3], 76 nM in assay [1] and 8 nM in assay [2].
